Measured values as given in patent US20250215039A1, “NUCLEOSIDES FOR TREATING CANCER” (PRIMEFOUR THERAPEUTICS, INC., priority 2022, published 2025).
Where two headings read alike, the source gives them in different places.

Key:
cancer cell lines = assay: Cancer cell proliferation activity (CellTiterGlo, 72 h); type: cell-based; details: 72 h, 72 h, read-out: IC50 cell proliferation
In short: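 Readout is CellTiterGlo luminescence after 72 h compound exposure (0.1% DMSO final), started one day post-seeding, at 37 °C.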

[1] = target: human cytidine deaminase (CDA) (Homo sapiens, UniProt P32320); assay: Metabolism by human cytidine deaminase (CDA), substrate absorbance at 290 nm; details: rate of substrate conversion at 200 μM; could not be fitted
human cytidine deaminase (CDA), sequence (P32320 whole entry): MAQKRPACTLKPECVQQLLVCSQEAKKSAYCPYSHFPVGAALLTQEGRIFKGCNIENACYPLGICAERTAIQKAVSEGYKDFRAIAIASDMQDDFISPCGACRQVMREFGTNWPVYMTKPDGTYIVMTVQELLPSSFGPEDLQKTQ
Experimental: Transfer 7.2 μl of each of the substrate DMSO stock in step 2 into a 500 μl 96-Well V-bottom Microplate, clear SBS footprint, cat #P-96-450V-C
Add 352.8 μl assay buffer to the wells
For deaminated product compounds mix 4 μl product with 196 μl assay buffer
This was incubated at 37° C. for 1 h. 200 μl of this mixture was transferred into the assay plate to serve as the product control.
Product+buffer: mix 80 ul of the 2.5× intermediate product stocks (from step 3) with 120 ul assay buffer into product control (no enzyme) wells
Incubate the plate alongside the 20 nM CDA enzyme intermediate stock at 37° C. to temperature equilibrate reagents
Add 120 μl of the 20 nM enzyme mix into the Substrate+CDA wells and start reading at 290 nm every 30 s for about 60 min
50 and 200 uM substrate and product
In 100 mM Tris, pH 7.5, 100 mM KCl, 0.8% carryover DMSO
5 min incubation at 37° C.
Absorbance at 290 nm every 30 s at 37° C. for 1 h using FlexStation 3
Convert A290 to concentration of substrate remaining at time t after enzyme addition:
[formula] • where: • St=absorbance reading of: substrate+CDA wells at time t • So=Average absorbance reading of: substrate+buffer wells • Po=Average absorbance reading of: product+buffer wells • [S]t=initial substrate concentration • Use GraphPad to plot [substrate] against time to calculate initial velocity or slope (μMs^−1) i.e. the linear range of each curve • Express rate in s^−1 by dividing initial velocity by the total enzyme concentration.
Plot rate against [substrate] and fit data to standard Michaelis Menten equation to obtain kcat and KM parameters.

Nc1ccn([C@H]2C[C@H](O)[C@](CO)(CF)O2)c(=O)n1 [Cpd. No. 198, 4-amino-1-((2R,4S,5R)-5-(fluoromethyl)-4-hydroxy-5-(hydroxymethyl)tetrahydrofuran-2-yl)pyrimidin-2(1H)-one]
IC50 (cancer cell lines; 5637 (bladder)): 450 nM | IC50 (cancer cell lines; CLS439 (bladder)): 2270 nM | IC50 (cancer cell lines; HS729 (muscle)): 580 nM | IC50 (cancer cell lines; J82 (bladder)): 760 nM | IC50 (cancer cell lines; JAR (placenta)): > 50000 nM | IC50 (cancer cell lines; MT3 (breast)): 80 nM | IC50 (cancer cell lines; PANCI (pancreas)): 620 nM | IC50 (cancer cell lines; PC3 (prostate)): 180 nM | IC50 (cancer cell lines; RD (muscle)): 1030 nM | IC50 (cancer cell lines; T24 (bladder)): 290 nM | IC50 (cancer cell lines; Homo sapiens, A204, 72 h, A204 (muscle)): 20 nM | IC50 (cancer cell lines; Homo sapiens, A549, 72 h, A549 (lung)): 440 nM | IC50 (cancer cell lines; Homo sapiens, A2780, 72 h, A2780 (ovary)): 720 nM | IC50 (cancer cell lines; Homo sapiens, A-375, 72 h, A375 (skin)): 710 nM | IC50 (cancer cell lines; Homo sapiens, A-431, 72 h, A431 (skin)): 470 nM | IC50 (cancer cell lines; Homo sapiens, ACHN, ACHN (kidney)): 390 nM | IC50 (cancer cell lines; Homo sapiens, ASPC1, 72 h, ASPC1 (pancreas)): 580 nM | IC50 (cancer cell lines; Homo sapiens, BT-20, 72 h, BT20 (breast)): 580 nM | IC50 (cancer cell lines; Homo sapiens, BXPC-3, 72 h, BXPC3 (pancreas)): 540 nM | IC50 (cancer cell lines; Homo sapiens, C-33-A, C33A (endometrial)): 240 nM | IC50 (cancer cell lines; Homo sapiens, CAKI-1, 72 h, CAKI1 (kidney)): 110 nM | IC50 (cancer cell lines; Homo sapiens, COLO 205, 72 h, COLO205 (colon)): 210 nM | IC50 (cancer cell lines; Homo sapiens, Caco-2, 72 h, CACO2 (colon)): > 50000 nM | IC50 (cancer cell lines; Homo sapiens, Calu-6, 72 h, CALU6 (lung)): 720 nM | IC50 (cancer cell lines; Homo sapiens, DU-145, 72 h, DU145 (prostate)): 310 nM | IC50 (cancer cell lines; Homo sapiens, EFO-21, 72 h, EFO21 (ovary)): 790 nM | IC50 (cancer cell lines; Homo sapiens, Granta-519, 72 h, GRANTA-519 (hematological)): 70 nM | IC50 (cancer cell lines; Homo sapiens, HCT-15, 72 h, HCT15 (colon)): 460 nM | IC50 (cancer cell lines; Homo sapiens, HCT-116, 72 h, HCT116 (colon)): 470 nM | IC50 (cancer cell lines; Homo sapiens, HEK293, 72 h, HEK293 (kidney)): > 50000 nM | IC50 (cancer cell lines; Homo sapiens, HT-1080, 72 h, HT1080 (connective tissue)): 380 nM | IC50 (cancer cell lines; Homo sapiens, HeLa, HELA (endometrial)): 1000 nM | IC50 (cancer cell lines; Homo sapiens, HepG2, 72 h, HEPG2 (liver)): 1000 nM | IC50 (cancer cell lines; Homo sapiens, Hs-578T, HS578T (breast)): 970 nM | IC50 (cancer cell lines; Homo sapiens, IGROV-1, 72 h, IGROV1 (ovary)): 510 nM | IC50 (cancer cell lines; Homo sapiens, JIMT-1, 72 h, JIMT1 (breast)): 190 nM | IC50 (cancer cell lines; Homo sapiens, Kasumi 1, 72 h, KASUMI-1 (hematological)): 270 nM | IC50 (cancer cell lines; Homo sapiens, L-363, 72 h, L-363 (hematological)): > 50000 nM | IC50 (cancer cell lines; Homo sapiens, LoVo, LOVO (colon)): 290 nM | IC50 (cancer cell lines; Homo sapiens, MDA-MB-231, 72 h, MDAMB231 (breast)): 100 nM | IC50 (cancer cell lines; Homo sapiens, MDA-MB-435, 72 h, MDAMB435 (skin)): 1300 nM | IC50 (cancer cell lines; Homo sapiens, MDA-MB-436, 72 h, MDAMB436 (breast)): 950 nM | IC50 (cancer cell lines; Homo sapiens, MG-63, 72 h, MG63 (bone)): 480 nM | IC50 (cancer cell lines; Homo sapiens, MINO, MINO (hematological)): 60 nM | IC50 (cancer cell lines; Homo sapiens, MV4-11, 72 h, MV4-11 (hematological)): 840 nM | IC50 (cancer cell lines; Homo sapiens, NCI-H23, 72 h, NCI-H23 (lung)): 720 nM | IC50 (cancer cell lines; Homo sapiens, NCI-H292, 72 h, NCIH292 (lung)): 920 nM | IC50 (cancer cell lines; Homo sapiens, NCI-H460, 72 h, NCIH460 (lung)): 770 nM | IC50 (cancer cell lines; Homo sapiens, OVCAR-3, 72 h, OVCAR3 (ovary)): 640 nM | IC50 (cancer cell lines; Homo sapiens, PLC-PRF-5, 72 h, PLCPRF5 (liver)): > 50000 nM | IC50 (cancer cell lines; Homo sapiens, Panc1005, 72 h, PANC1005 (pancreas)): > 50000 nM | IC50 (cancer cell lines; Homo sapiens, Ramos, RAMOS (hematological)): 240 nM | IC50 (cancer cell lines; Homo sapiens, SAOS-2, 72 h, SAOS2 (bone)): 110 nM | IC50 (cancer cell lines; Homo sapiens, SF-268, 72 h, SF268 (brain)): 260 nM | IC50 (cancer cell lines; Homo sapiens, SK-BR-3, 72 h, SKBR3 (breast)): 260 nM | IC50 (cancer cell lines; Homo sapiens, SK-HEP1, 72 h, SKHEP1 (liver)): 320 nM | IC50 (cancer cell lines; Homo sapiens, SK-LMS-1, 72 h, SKLMS1 (uterus)): 860 nM | IC50 (cancer cell lines; Homo sapiens, SK-N-SH, SKNSH (brain)): > 50000 nM | IC50 (cancer cell lines; Homo sapiens, SNB-75, 72 h, SNB75 (brain)): 550 nM | IC50 (cancer cell lines; Homo sapiens, SU-DHL10, 72 h, SU-DHL-10 (hematological)): 560 nM | IC50 (cancer cell lines; Homo sapiens, SU-DHL-6, 72 h, SU-DHL-6 (hematological)): 310 nM | IC50 (cancer cell lines; Homo sapiens, THP-1, 72 h, THP-1 (hematological)): 650 nM | IC50 (cancer cell lines; Homo sapiens, U-87 MG, U87MG (brain)): 400 nM | IC50 (cancer cell lines; Homo sapiens, UO-31, 72 h, UO31 (kidney)): 550 nM | IC50 (cancer cell lines; Homo sapiens, WSU-NHL, WSU-NHL (hematological)): 150 nM | IC50 (cancer cell lines; NCI-H358M, NCIH358M (lung)): 120 nM | IC50 (cancer cell lines; PBMC, PBMC (hematological)): 710 nM | IC50 (cancer cell lines; RD-ES, RDES (bone)): 1900 nM | substrate conversion by CDA (Inactive) [1]: Inactive
